In PMC8877822, “Interrogation of the Structure–Activity Relationship of a Lipophilic Nitroaromatic Prodrug Series Designed for Cancer Gene Therapy Applications” (Pharmaceuticals, 2022):
Like-named read-outs stand apart in the source and are kept apart here.

Assays:
[1] = in vivo; format: in vivo, mice; conditions: for MTD: NIH-III nude, mouse, in vivo, ip, i.p., read-out: Maximum tolerated dose (MTD)
Text: NfsA_Ec potency and bystander effect from the diffusion of activated metabolites is only one determinant of the therapeutic utility of a GDEPT prodrug. Overall, anti-tumor activity will also depend on the efficiency of metabolic activation at well-tolerated prodrug doses, determined mainly by the relationship between host toxicity and plasma/tumor pharmacokinetics. Like PR-104A, the three lead prodrugs (1, 2, and 6) contain an alcohol side chain that requires addition of a phosphate ester to increase water solubility for in vivo applications. […] Employing identical methods, we determined the MTD of compounds 2-P and 6-P to be 1000 µmol/kg and 1330 µmol/kg, respectively (data summary in Table S1). In preparation for efficacy testing against H1299 xenografts, we next determined the MTD of each compound (1-P, 2-P, and 6-P) in H1299 tumor-bearing mice to be 1330 µmol/kg, 750 µmol/kg, and 1330 µmol/kg, respectively (Table S1). In each case 1-P, 2-P, and 6-P administration (i.p.) was well tolerated, with no evidence of morbidity or mortality, accompanied by a minimal body weight loss (BWL) nadir of −2.2%, −4.0%, and −5.3%, respectively (MTD defined as <−15% average BWL).
(§1) An estimated starting dose was determined from related compounds. Animals were promptly euthanized if body weight loss exceeded 20% or if there were clinical signs of severe morbidity. The MTD was defined as the highest dose, at which all animals survived (death rate < 1/6) with no unacceptable morbidity, and where the next dose increment had caused at least one death. Tumors were inoculated onto the flanks of NIH-III nude mice by subcutaneous injection of 10^7 H1299 cells. Tumor-bearing mice were randomized to treatment groups (n = 5 mice per group) when tumors reached treatment size (300–350 mm^3) and injected with a single intraperitoneal dose of pre-prodrug. Tumor size and body weights were measured regularly. Tumor volume was calculated as π(Lxw^2)/6, where L is the major axis and w is the perpendicular minor axis. Animals were euthanized when the tumor volume had increased fourfold relative to pre-treatment volume (RTV4, survival endpoint) or if body weight loss exceeded 20% of the pre-treatment value. Kaplan–Meier plots were constructed, and median time to endpoint was calculated. Treatment efficacy was assessed by comparing the median survival time with untreated animals using the Log-rank test p-test (Sigmaplot version 11.0).
Supplementary Table S1. Summary of maximum tolerated dose of test compounds
Footnotes: BWL nadir % = body weight loss percentage (time independent nadir). HEP = humane endpoint. * =
Non-tumour bearing H1299 tumour bearing

[2] = tested on: mixed H1299 xenograft containing 28% NfsA_Ec cells and 72% WT cells; experiment: Tumor growth delay assay, mixed H1299 xenograft; format: in vivo, mice; conditions: for Survival time compared to PR-104 treated tumors: single i.p. dose: 1-P 1330 µmol/kg
Procedure: These ratios were broadly similar to those observed in HCT116 cells (Figure 2). A mixed H1299 xenograft model containing a minority percentage (28 ± 3.3%) of NfsA_Ec-expressing cells was used in order to rank the efficacy of the prodrugs in vivo. A model such as this necessitates the presence of a robust bystander effect to achieve a tumor growth delay. Tumor-bearing mice were administered a single intraperitoneal dose of prodrugs 1-P, 2-P, and 6-P at the H1299 tumor-bearing MTD. PR-104 was administered at 388 µmol/kg, the human equivalent dose (HED) in mice that provides a plasma AUCfree of PR-104A (38 µM-h) that equates to the human Q3W MTD of 1100 mg/m^2 [22].
as §1
Figure 5 In vivo efficacy of the three lead pre-prodrug compounds in a mixed H1299 xenograft containing 28% NfsA_Ec cells and 72% WT cells. (A) Tumor growth and (B) survival analysis of mice bearing 250 mm^3 H1299 tumors treated with a single intraperitoneal dose of prodrug on day 0. N = 5 animals per group. Control = PBS, PR-104 = 388 µmol/kg; 1-P = 1330 μmol/kg; 2-P = 750 μmol/kg; and 6-P = 1330 μmol/kg. Survival endpoint was 4× start volume (RTV4).

[3] = non-tumour bearing, cited from earlier work
[4] = LogD7.4 by low-volume octanol/PBS shake-flask method; format: physicochemical; conditions: n-octanol/PBS; octanol-water partition coefficient, shake-flask method at pH 7.4
Procedure: Distribution ratios (LogD7.4) were determined by a low-volume octanol/PBS shake-flask method. Briefly, saturated solutions of octanol and PBS were prepared by mixing equal volumes of n-octanol and PBS (pH 7.4) before being left for three days. The octanol and PBS phases were then carefully separated and left to stand for at least 24 h. Stock solutions (0.1–0.5 mM) of each compound were prepared in octanol saturated with PBS. The stock solutions were diluted with octanol saturated with PBS containing and inter-assay control (acridone) to a final compound concentration of 50 μM. Aliquots (450 μL) were then taken in triplicate, and 450 μL of PBS saturated with octanol was added into amber tubes. The tubes were then sealed in parafilm and rotated for 90 min at 30 rpm to equilibrate. After centrifugation (15,000× g, 5 min, 20°C) the octanol and PBS phases were separated into different tubes and the octanol phase diluted with methanol (1:5 v/v). Both phases were analyzed by HPLC (diode-array detector at 364 ± 10 nm) by injecting 50 μL of the PBS phase and 15 μL of the diluted octanol phase. The results were then expressed as the log ratio of the peak areas obtained from the octanol and PBS phases corrected for dilution and injection volume.

[5] = tested on: SiHa xenografts; experiment: Tumor excision assay, clonogenic cell kill of SiHa xenografts; format: in vivo, mice; conditions: 18 h after treatment, PR-104 380 µmol/kg i.p., 6-P 1330 µmol/kg i.p.
Procedure: The sensitivity of four cancer cell lines to prodrug 6 was determined under aerobic or anoxic conditions using an anti-proliferative IC50 assay. […] We also evaluated the hypoxic activity of 6-P versus PR-104 in vivo using a SiHa xenograft model (Figure 6B).
When tumors reached treatment size (>400 mm^3), mice were treated with drug by a single intraperitoneal injection of pre-prodrug or vehicle. Mice treated with ionizing radiation were exposed to 10 Gray prior to drug treatment, using a cobalt-60 source from an Eldorado G unit. Animals were euthanized 18 h after drug treatment, and tumors were excised and homogenized using sterile scissors until a fine mince was obtained. Following enzymatic dissociation (2.5 mg/mL pronase, 1 mg/mL collagenase, and 0.2 mg/mL DNAase in αMEM + 10% FBS + 1% P/S, 1 mL per 50 mg), cells were plated at concentrations of 10^2–10^5 cells per 60 mm dish and grown for 10 days before colonies were stained with methylene blue (2 g/L in 50% aqueous alcohol). Colonies containing >50 cells were counted as clonogenic survivors. From these values, plating efficiency (colonies/cells plated), number of clonogens per gram of tumor tissue (plating efficiency × total cells), and log cell kill relative to vehicle treated controls (log clonogens per gram) were calculated. Statistical analysis was undertaken using Holm–Sidak’s one-way ANOVA (Sigmaplot version 11.0).
(A) In vitro anti-proliferative activity of 6 in various cancer cell lines under aerobic and anoxic conditions. IC50 values were determined as the concentration of drug required to inhibit cell growth by 50% of untreated controls following 4 h drug exposure and five days regrowth (mean ±SEM of three or more independent determinations). (B) Clonogenic cell kill of SiHa xenografts 18 h after treatment with hypoxia activated prodrugs PR-104 (380 µmol/kg, i.p.) or 6-P (1330 µmol/kg, i.p.) with or without 10 Gy radiation.

[6] = H1299 tumour bearing, dose 1330 µmol/kg
[7] = H1299 tumour bearing, dose 1780 µmol/kg
[8] = H1299 tumour bearing, dose 750 µmol/kg
[9] = H1299 tumour bearing, dose 1000 µmol/kg
[10] = non-tumour bearing, dose 1000 µmol/kg
[11] = non-tumour bearing, dose 1330 µmol/kg
[12] = non-tumour bearing, dose 1780 µmol/kg

With `CS(=O)(=O)c1cc([N+](=O)[O-])c(C(=O)NCCOP(=O)(O)O)cc1N(CCBr)CCBr` [Compound 1-P] the BWL nadir [1, 6] was -2.2%, the Deaths [1, 6] was 0 and the “HEP (humane endpoint)” value [1, 6] was 0. For the same compound, the “MTD (Yes/above)” value [1, 6] was “Yes”, the BWL nadir [1, 7] was -7.6% and the Deaths [1, 7] was 1. For the same compound, the “HEP (humane endpoint)” value [1, 7] was 1, the “MTD (Yes/above)” value [1, 7] was “above” and the MTD ([1]; H1299 tumor-bearing mice) was 1330 µmol/kg. For the same compound, the “Survival time compared to PR-104 treated tumors” value ([2]; 2-P 750 µmol/kg) was “did not produce an improvement in survival time”, the BWL nadir ([3]; dose 1780 µmol/kg) was -2.8% and the Deaths ([3]; dose 1780 µmol/kg) was 0. For the same compound, the “HEP (humane endpoint)” value ([3]; dose 1780 µmol/kg) was 0, the “MTD (Yes/above)” value ([3]; dose 1780 µmol/kg) was “Yes” and the BWL nadir ([3]; dose 2370 µmol/kg) was -6.9%. The Deaths ([3]; dose 2370 µmol/kg) was 2, the “HEP (humane endpoint)” value ([3]; dose 2370 µmol/kg) was 0 and the “MTD (Yes/above)” value ([3]; dose 2370 µmol/kg) was “above”. For the same compound, the “Maximum tolerated dose (MTD)” value ([3]; nude mice, i.p.) was 1780 µmol/kg.

With `CN(CCOP(=O)(O)O)C(=O)c1cc(N(CCBr)CCBr)c(S(C)(=O)=O)cc1[N+](=O)[O-]` [Compound 2-P, 2-(5-(Bis(2-bromoethyl)amino)-N-methyl-4-(methylsulfonyl)-2-nitrobenzamido)ethyl dihydrogen phosphate] the BWL nadir [1, 8] was -4.0%, the Deaths [1, 8] was 0 and the “HEP (humane endpoint)” value [1, 8] was 0. The “MTD (Yes/above)” value [1, 8] was “Yes”, the BWL nadir [1, 9] was -8.7% and the Deaths [1, 9] was 2. For the same compound, the “HEP (humane endpoint)” value [1, 9] was 0, the “MTD (Yes/above)” value [1, 9] was “above” and the MTD ([1]; H1299 tumor-bearing mice) was 750 µmol/kg. The MTD ([1]; nude mice, non-tumour bearing) was 1000 µmol/kg, the BWL nadir [1, 10] was -2.5% and the Deaths [1, 10] was 0. For the same compound, the “HEP (humane endpoint)” value [1, 10] was 0, the “MTD (Yes/above)” value [1, 10] was “Yes” and the BWL nadir [1, 11] was -10.5%. The Deaths [1, 11] was 1, the “HEP (humane endpoint)” value [1, 11] was 1 and the “MTD (Yes/above)” value [1, 11] was “above”. For the same compound, the “Survival time compared to PR-104 treated tumors” value ([2]; 2-P 750 µmol/kg) was “did not produce an improvement in survival time”.

For `CCN(CCO)C(=O)c1cc(N(CCBr)CCBr)c(S(C)(=O)=O)cc1[N+](=O)[O-]` [Compound 3], the logD at 90 min [4] was 1.6.

Work on `CCS(=O)(=O)c1cc([N+](=O)[O-])c(C(=O)NCCO)cc1N(CCBr)CCBr` [Compound 5, 5-(Bis(2-bromoethyl)amino)-N-(2-hydroxyethyl)-4-(ethylsulfonyl)-2-nitrobenzamide] yielded a logD at 90 min [4] of 1.5 and a melting point of 137 to 140 °C.

In the case of `CCS(=O)(=O)c1cc([N+](=O)[O-])c(C(=O)N(C)CCOP(=O)(O)O)cc1N(CCBr)CCBr` [Compound 6-P, 2-(5-(bis(2-bromoethyl)amino)-4-(ethylsulfonyl)-N-methyl-2-nitrobenzamido)ethyl dihydrogen phosphate], the BWL nadir [1, 6] is reported as -5.3%, the Deaths [1, 6] is reported as 0 and the “HEP (humane endpoint)” value [1, 6] is reported as 0. The “MTD (Yes/above)” value [1, 6] was “Yes”, the MTD ([1]; H1299 tumor-bearing mice) was 1330 µmol/kg and the MTD ([1]; nude mice, non-tumour bearing) was 1330 µmol/kg. The BWL nadir [1, 11] was -1.8%, the Deaths [1, 11] was 0 and the “HEP (humane endpoint)” value [1, 11] was 0. The “MTD (Yes/above)” value [1, 11] was “Yes”, the Deaths [1, 12] was 0 and the “HEP (humane endpoint)” value [1, 12] was 2. For the same compound, the “MTD (Yes/above)” value [1, 12] was “above”, the “Tumor growth delay compared to PR-104 treated group” value ([2]; single i.p. dose, 6-P 1330 µmol/kg, PR-104 388 µmol/kg) was 92% and the “Tumor growth delay (median time to RTV4) compared to untreated controls” value ([2]; single i.p. dose: PR-104 388 µmol/kg, 1-P 1330 µmol/kg, 2-P 750 µmol/kg, 6-P 1330 µmol/kg) was 156%. For the same compound, the “Log cell kill, in combination with radiotherapy” value ([5]; 10 Gy radiation) was 4.05 and the “Log cell kill, single agent” value [5] was 1.06.

With `CCCS(=O)(=O)c1cc([N+](=O)[O-])c(C(=O)NCCO)cc1N(CCBr)CCBr` [Compound 8] the melting point was 128 to 129 °C.
